# Reference: patent publication US20120077795A1, “BIS-PYRIDYLPYRIDONES AS MELANIN-CONCENTRATING HORMONE RECEPTOR 1 ANTAGONISTS” (GLAXSMITHKLINE LLC, priority 2009, published 2012)
# Biological target: T1, hMCHR1 (Homo sapiens, UniProt Q99705)
# T1 construct: expressed in transfected cells; host or cells: HEK293
# Experiment: MCHR1 pIC50 determination FLIPR assay (calcium response to MCH challenge)
# Assay type: cell-based
# Details: HEK293 cells stably transfected with hMCHR1; MCH challenge at 4XEC50
# Description: MCHR^1 pIC50 Determination FLIPR™ Assay: HEK293 cells stably transfected with hMCHR1 were propagated as adherent cultures at 37° C. in a humidified incubator. Cells were split 1:8 at 90% confluency two times per week. New cell stocks were recovered from storage every two months. Cells were plated in black 384-well plates (Greiner) 24 hours prior to assay at 15,000 cells/well in 50 μL DMEM/F12, 10% FBS, 2 mM I-glutamine. Compounds to be profiled were prepared by making a stock solution at 3×10^−3M in 100% DMSO. The stock solutions were serially diluted 1:4 in 100% DMSO using JANUS (PerkinElmer) liquid handling instrument to allow for an 11 point curve in singlicate. At the time of the assay, the media was removed from the cell plate by aspiration, followed by the addition of 20 μL of loading buffer (Calcium 4 Kit, […]). Following 50 min incubation at 37° C., 10 μL of compound was added to the plates via the FLIPR™ instrument ([…]). The plates were incubated at room temperature for 15 minutes along with an MCH peptide agonist challenge plate. […] The amount of luciferase generated was quantified in a TopCount (PerkinElmer Packard) at 19.8° C. in SPC (single photon counting) mode with a 5 second count/well and subjected to a nonlinear regression analysis curve fitting program to generate pIC50s.
# T1 sequence (Q99705 whole entry): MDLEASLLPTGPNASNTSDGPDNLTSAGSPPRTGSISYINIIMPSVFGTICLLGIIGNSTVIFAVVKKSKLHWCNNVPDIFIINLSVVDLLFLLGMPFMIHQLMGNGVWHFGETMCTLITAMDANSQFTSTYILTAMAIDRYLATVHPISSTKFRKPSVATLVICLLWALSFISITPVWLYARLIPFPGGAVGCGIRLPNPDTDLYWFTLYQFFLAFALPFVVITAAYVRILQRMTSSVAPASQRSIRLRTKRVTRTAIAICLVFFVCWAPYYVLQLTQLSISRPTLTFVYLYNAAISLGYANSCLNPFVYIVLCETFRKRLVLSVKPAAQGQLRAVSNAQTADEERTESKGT
row,IC50 [nM],Compound
1,45,CNC1C2CN(c3ccc(-n4ccc(OCc5ccc(Cl)cn5)cc4=O)cn3)CC21 (centres unmarked) [Example 14]
2,56,O=c1cc(OCc2ccc(Cl)cn2)ccn1-c1ccc(N2CC3CONC3C2)nc1 (centres unmarked) [Example 16]
